From patent publication US9238034B2, “FN14 antagonists and therapeutic uses thereof” (THE TRANSLATIONAL GENOMICS RESEARCH INSTITUTE, priority 2013, dated 2016)
pIC50: −log10 of the molar value. Like-named read-outs stand apart in the source and are kept apart here.

Key:
Fn14-TWEAK binding = biological target: T1, Fn14-TWEAK binding (Homo sapiens, UniProt Q9NP84); experiment: Double sandwich ELISA small molecule screening of TWEAK binding to captured Fn14-Fc
T1 construct: the human Fc fragment-tagged Fn14 extracellular domain (R&D Systems) was captured; purchased R&D Systems (Fn14-Fc); Peprotech (recombinant TWEAK)
T1 sequence (Q9NP84 28-80 limits assumed): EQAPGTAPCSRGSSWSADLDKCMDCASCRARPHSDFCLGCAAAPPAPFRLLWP
In short: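 Fn14-Fc (human Fc-tagged extracellular domain) captured on anti-human Fc wells; compounds at 25 μM (0.125% DMSO) preincubated 2 h at room temperature, then TWEAK added to 500 pg/mL final for 2 h. Bound TWEAK detected with biotinylated anti-TWEAK antibody, HRP-streptavidin and chemiluminescence; binding reduction calculated from a per-plate recombinant TWEAK standard curve.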

T98G glioma cells = experiment: Cell migration assay, modified Boyden chamber, TWEAK induced; assay type: cell-based, human; details: 10 μM, 5 hours
Method: Cell Migration Assay. The effect of pharmacological inhibition of TWEAK/Fn14 signaling on glioma cell migration was analyzed using a modified Boyden chamber (Neuroprobe, Cabin John, Md.) as described previously (Lamszus, K., et al. (1998) Journal international du cancer 75, 19-28; Brockmann, M. A., et al. (2003) Neurosurgery 52, 1391-1399). Each well contains a […] pore size Nucleopore filter that had been coated with 50 μg/mL PureCol® (Bovine Collagen) (Advanced Biomatrix, Poway, Calif.). T98G glioma cells were treated with selected drug compound for 1 hr and then seeded at 4.8×10^4 cells in 100 μL of DMEM with 0.1% bovine serum assay medium to the top well of the chamber. TWEAK was added to the lower wells of the chamber using DMEM with 0.1% bovine serum albumin as assay medium. After incubation for 5 hours at 37° C., nonmigrated cells were scraped off the upper side of the filter, and filters were stained with 4′,6-diamidino-2-phenylindole (DAPI). Nuclei of migrated cells were counted in 5 high-power fields (HPF) with a 20× objective. Values were assessed in triplicate.

[1] = system: TNFα-induced NF-κB activity; experiment: Counter-screen NF-κB luciferase assay, NF-κB-Luc reporter cells stimulated with TNFα; assay type: cell-based, human
Method: Briefly, Fn14-NF-κB-Luc reporter cells, (Fn14 overexpressing HEK293 NF-κB luciferase cells), were seeded in tissue culture treated white 96-well plates at 1×10^4 cells/well in 80 μL Opti-MEM media (Invitrogen) and incubated for 48 hr at 37° C. After 48 hr incubation, 10 μL of the drug solution (200 μM) in DMSO was added to the designated wells at a final concentration of 20 μM. After 1 hr of drug incubation at 37° C., 10 μL of 10× purified recombinant TWEAK (Peprotech Inc.; 300 ng/mL) in 1 mg/mL BSA in PBS was added to each well and incubated for 5 hr at 37° C. DMSO alone was used as a negative control whereas anti-TWEAK antibody suspended in DMSO was used as a positive control for the assay. Luminescent signal was determined using Bright-Glo assay kit (Promega, Madison, Wis.) according to the manufacturer's instructions and normalized to negative control. A counter-screen assay was carried out using TNFα to stimulate NF-κB activity in NF-κB-Luc reporter cells (HEK293 NF-κB luciferase cells). The counter-screen assay was performed similar to the drug screening assay described above, except 10 μL of 10× purified recombinant TNFα (R&D Scientific; 300 ng/mL) in 1 mg/mL BSA in PBS was added to each well instead of TWEAK for NF-κB activation. […] IC50 values for dose response curve were determined using the curve fitting functionality of GraphPad Prism software.

inhibition at 25 µM (Fn14-TWEAK binding; Table 4, second screening iteration, 25 μM, average of duplicate, read-out: % Reduction in TWEAK Binding, Average): 16.9%
inhibition at 25 µM (Fn14-TWEAK binding; Table 4, second screening iteration, 25 μM, replicate 1, read-out: % Reduction in TWEAK Binding, Data 1): 18.8%
inhibition at 25 µM (Fn14-TWEAK binding; Table 4, second screening iteration, 25 μM, replicate 2, read-out: % Reduction in TWEAK Binding, Data 2): 14.9%
inhibition at 25 µM (Fn14-TWEAK binding; Table 5, 25 μM, average of duplicate, read-out: % Reduction in TWEAK Binding, Average): 16.9%
inhibition at 25 µM (Fn14-TWEAK binding; Table 5, 25 μM, replicate 1, read-out: % Reduction in TWEAK Binding, Data 1): 18.8%
inhibition at 25 µM (Fn14-TWEAK binding; Table 5, 25 μM, replicate 2, read-out: % Reduction in TWEAK Binding, Data 2): 14.9%
Compound: O=C(c1cn(-c2cccc(Cl)c2)nn1)N1CCSCC1 [Compound L524-0366]
TWEAK-induced T98G cell migration (T98G glioma cells): completely suppressed
pIC50 ([1]; Homo sapiens, NF-κB-Luc cells stimulated with TNFα, 0.75 μM to 250 μM, read-out: IC50, TNFα stimulated luciferase induction): 4.51
inhibition of TNFα-induced NF-κB driven luciferase activity ([1]; NF-κB-Luc cells, 20 μM): only minor inhibition
